Laboratory results: PubChem BioAssay (NCI)
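Exposure lasted 48 hours, with cells grown in 96-well plates and compounds tested at five concentrations. At the TGI there is no net growth.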

What was measured:
Test in all cases: NCI-60 cell line screen, 48 h
LOX IMVI melanoma = test system: LOX IMVI melanoma
OVCAR-8 ovarian = test system: OVCAR-8 ovarian
DU-145 prostate = test system: DU-145 prostate
SK-MEL-28 melanoma = test system: SK-MEL-28 melanoma
786-0 renal = test system: 786-0 renal
HCT-15 colon = test system: HCT-15 colon
K-562 leukemia = test system: K-562 leukemia
KM12 colon = test system: KM12 colon
SK-MEL-5 melanoma = test system: SK-MEL-5 melanoma
HL-60(TB) leukemia = test system: HL-60(TB) leukemia
HOP-92 NSCLC = test system: HOP-92 NSCLC
IGROV1 ovarian = test system: IGROV1 ovarian
RXF 393 renal = test system: RXF 393 renal
ACHN renal = test system: ACHN renal
CAKI-1 renal = test system: CAKI-1 renal
M14 melanoma = test system: M14 melanoma
HOP-62 NSCLC = test system: HOP-62 NSCLC
OVCAR-5 ovarian = test system: OVCAR-5 ovarian
RPMI-8226 leukemia = test system: RPMI-8226 leukemia
NCI/ADR-RES ovarian = test system: NCI/ADR-RES ovarian
SW-620 colon = test system: SW-620 colon
CCRF-CEM leukemia = test system: CCRF-CEM leukemia
HCC-2998 colon = test system: HCC-2998 colon
MOLT-4 leukemia = test system: MOLT-4 leukemia
SR leukemia = test system: SR leukemia
NCI-H226 lung = test system: NCI-H226 lung
TK-10 renal = test system: TK-10 renal
MDA-MB-231 breast = test system: MDA-MB-231 breast
SF-295 CNS = test system: SF-295 CNS
UO-31 renal = test system: UO-31 renal
NCI-H522 lung = test system: NCI-H522 lung
A498 renal = test system: A498 renal
NCI-H23 lung = test system: NCI-H23 lung
EKVX NSCLC = test system: EKVX NSCLC
A549 NSCLC = test system: A549 NSCLC
SF-268 CNS = test system: SF-268 CNS
OVCAR-4 ovarian = test system: OVCAR-4 ovarian
HCT-116 colon = test system: HCT-116 colon
NCI-H460 lung = test system: NCI-H460 lung
SNB-19 CNS = test system: SNB-19 CNS
PC-3 prostate = test system: PC-3 prostate
HS 578T breast = test system: HS 578T breast
MDA-N = test system: MDA-N
MCF7 breast = test system: MCF7 breast
OVCAR-3 ovarian = test system: OVCAR-3 ovarian
MALME-3M melanoma = test system: MALME-3M melanoma
UACC-257 melanoma = test system: UACC-257 melanoma
SNB-75 CNS = test system: SNB-75 CNS
SN12C renal = test system: SN12C renal
HT29 colon = test system: HT29 colon
UACC-62 melanoma = test system: UACC-62 melanoma
BT-549 breast = test system: BT-549 breast
MDA-MB-435 = test system: MDA-MB-435
U251 CNS = test system: U251 CNS
SF-539 CNS = test system: SF-539 CNS
SK-MEL-2 melanoma = test system: SK-MEL-2 melanoma
SK-OV-3 ovarian = test system: SK-OV-3 ovarian
T-47D breast = test system: T-47D breast
COLO 205 colon = test system: COLO 205 colon

Compound: CC(C)(C)C1CC[C@H](O)[C@H]([C@@H](O)CC2CC(=O)N(c3ccccc3)C(=O)C2)C1 (some centres undefined)
- TGI (LOX IMVI melanoma): > 100 µM
- TGI (OVCAR-8 ovarian): > 100 µM
- TGI (DU-145 prostate): > 100 µM
- TGI (SK-MEL-28 melanoma): > 100 µM
- TGI (786-0 renal): > 100 µM
- TGI (HCT-15 colon): > 100 µM
- TGI (K-562 leukemia): > 100 µM
- TGI (KM12 colon): > 100 µM
- TGI (SK-MEL-5 melanoma): > 100 µM
- TGI (HL-60(TB) leukemia): 77.5 µM
- TGI (HOP-92 NSCLC): > 100 µM
- TGI (IGROV1 ovarian): > 100 µM
- TGI (RXF 393 renal): > 100 µM
- TGI (ACHN renal): > 100 µM
- TGI (CAKI-1 renal): > 100 µM
- TGI (M14 melanoma): > 100 µM
- TGI (HOP-62 NSCLC): > 100 µM
- TGI (OVCAR-5 ovarian): > 100 µM
- TGI (RPMI-8226 leukemia): > 100 µM
- TGI (NCI/ADR-RES ovarian): > 100 µM
- TGI (SW-620 colon): > 100 µM
- TGI (CCRF-CEM leukemia): > 100 µM
- TGI (HCC-2998 colon): > 100 µM
- TGI (MOLT-4 leukemia): > 100 µM
- TGI (SR leukemia): > 100 µM
- TGI (NCI-H226 lung): > 100 µM
- TGI (TK-10 renal): > 100 µM
- TGI (MDA-MB-231 breast): > 100 µM
- TGI (SF-295 CNS): > 100 µM
- TGI (UO-31 renal): > 100 µM
- TGI (NCI-H522 lung): > 100 µM
- TGI (A498 renal): > 100 µM
- TGI (NCI-H23 lung): > 100 µM
- TGI (EKVX NSCLC): > 100 µM
- TGI (A549 NSCLC): > 100 µM
- TGI (SF-268 CNS): > 100 µM
- TGI (OVCAR-4 ovarian): > 100 µM
- TGI (HCT-116 colon): > 100 µM
- TGI (NCI-H460 lung): > 100 µM
- TGI (SNB-19 CNS): > 100 µM
- TGI (PC-3 prostate): > 100 µM
- TGI (HS 578T breast): > 100 µM
- TGI (MDA-N): > 100 µM
- TGI (MCF7 breast): > 100 µM
- TGI (OVCAR-3 ovarian): > 100 µM
- TGI (MALME-3M melanoma): > 100 µM
- TGI (UACC-257 melanoma): > 100 µM
- TGI (SNB-75 CNS): > 100 µM
- TGI (SN12C renal): > 100 µM
- TGI (HT29 colon): > 100 µM
- TGI (UACC-62 melanoma): 74.9 µM
- TGI (BT-549 breast): > 100 µM
- TGI (MDA-MB-435): > 100 µM
- TGI (U251 CNS): > 100 µM
- TGI (SF-539 CNS): > 100 µM

Compound: O=C(O)CC(CC(=O)O)n1cccc1
- TGI (LOX IMVI melanoma): > 100 µM
- TGI (OVCAR-8 ovarian): > 100 µM
- TGI (DU-145 prostate): > 100 µM
- TGI (SK-MEL-28 melanoma): > 100 µM
- TGI (786-0 renal): > 100 µM
- TGI (HCT-15 colon): > 100 µM
- TGI (K-562 leukemia): > 100 µM
- TGI (KM12 colon): > 100 µM
- TGI (SK-MEL-2 melanoma): > 100 µM
- TGI (SK-MEL-5 melanoma): > 100 µM
- TGI (SK-OV-3 ovarian): > 100 µM
- TGI (HL-60(TB) leukemia): > 100 µM
- TGI (HOP-92 NSCLC): > 100 µM
- TGI (IGROV1 ovarian): > 100 µM
- TGI (RXF 393 renal): > 100 µM
- TGI (ACHN renal): > 100 µM
- TGI (CAKI-1 renal): > 100 µM
- TGI (M14 melanoma): > 100 µM
- TGI (HOP-62 NSCLC): > 100 µM
- TGI (OVCAR-5 ovarian): > 100 µM
- TGI (RPMI-8226 leukemia): > 100 µM
- TGI (NCI/ADR-RES ovarian): > 100 µM
- TGI (SW-620 colon): > 100 µM
- TGI (CCRF-CEM leukemia): > 100 µM
- TGI (MOLT-4 leukemia): > 100 µM
- TGI (SR leukemia): > 100 µM
- TGI (NCI-H226 lung): > 100 µM
- TGI (TK-10 renal): > 100 µM
- TGI (MDA-MB-231 breast): > 100 µM
- TGI (T-47D breast): > 100 µM
- TGI (SF-295 CNS): > 100 µM
- TGI (UO-31 renal): > 100 µM
- TGI (NCI-H522 lung): > 100 µM
- TGI (A498 renal): > 100 µM
- TGI (NCI-H23 lung): > 100 µM
- TGI (EKVX NSCLC): > 100 µM
- TGI (A549 NSCLC): > 100 µM
- TGI (OVCAR-4 ovarian): > 100 µM
- TGI (HCT-116 colon): > 100 µM
- TGI (NCI-H460 lung): > 100 µM
- TGI (SNB-19 CNS): > 100 µM
- TGI (PC-3 prostate): > 100 µM
- TGI (MDA-N): > 100 µM
- TGI (MCF7 breast): > 100 µM
- TGI (OVCAR-3 ovarian): > 100 µM
- TGI (COLO 205 colon): > 100 µM
- TGI (UACC-257 melanoma): > 100 µM
- TGI (SN12C renal): > 100 µM
- TGI (HT29 colon): > 100 µM
- TGI (UACC-62 melanoma): > 100 µM
- TGI (BT-549 breast): > 100 µM
- TGI (MDA-MB-435): > 100 µM
- TGI (U251 CNS): > 100 µM
- TGI (SF-539 CNS): > 100 µM
